Results: patent US9416149B2, “Methods to modulate Rac1 import and to treat pulmonary fibrosis” (University of Iowa Research Foundation, priority 2013, dated 2016)

Legend:
Macrophages [1] = experiment: Mitochondrial H2O2 generation in macrophages exposed to chrysotile asbestos (pHPA assay); format: cell-based; conditions: Example 1, FIG. 2; DGBP 10 mM; chrysotile asbestos 10 μg/cm^2; isolated mitochondria
Procedure: (§1) Extracellular H2O2 production was determined fluorometrically, as previously described (He, C., et al., Mitochondrial Cu,Zn-Superoxide Dismutase Mediates Pulmonary Fibrosis by Augmenting H2O2 Generation. J Biol Chem, 2011. 286(17): p. 15597-607). Briefly, cells were incubated in phenol-red free Hanks' balanced salt solution supplemented with 6.5 mM glucose, 1 mM HEPES, 6 mM sodium bicarbonate, 1.6 mM pHPA, and 0.95 μg/ml HRP. Fluorescence of the pHPA-dimer was measured using a spectrofluorometer at excitation of 320 nm and emission of 400 nm. Mitochondrial H2O2 was measured by resuspending mitochondria in phenol-red free Hanks' balanced salt solution supplemented with 6.5 mM glucose, 1 mM HEPES, 6 mM sodium bicarbonate, 1.6 mM pHPA, 0.95 μg/ml HRP and 5 mM α-ketoglutarate.
(§2) Mitochondria were isolated as previously described (He, C., et al., Mitochondrial Cu,Zn-Superoxide Dismutase Mediates Pulmonary Fibrosis by Augmenting H2O2 Generation. J Biol Chem, 2011. 286(17): p. 15597-607).

[2] = test system: bleomycin-induced pulmonary fibrosis; experiment: Progression of bleomycin-induced pulmonary fibrosis in mice, osmotic pumps installed seven days after bleomycin; format: in vivo
Procedure: (§3) Wild-type C57Bl/6 mice were from Jackson Laboratories (Bar Habor, Me.). The University of Iowa Institutional Animal Care and Use Committee approved all protocols. After equilibration, osmotic pumps (Alzet, Cupertino, Calif.) containing either vehicle (water) or DGBP (0.2 mg/kg/day) were implanted subcutaneously, as describe previously (Erickson, J. R., et al., A dynamic pathway for calcium-independent activation of CaMKII by methionine oxidation. Cell, 2008. 133(3): p. 462-74). Bleomycin (2.0 U/kg) or chrysotile ([…]) was administered intratracheally. Mice were euthanized and fibrosis determined as previously described (Osborn-Heaford, H. L., et al., Mitochondrial Rac1 GTPase Import and Electron Transfer from Cytochrome c Are Required for Pulmonary Fibrosis. The Journal of biological chemistry, 2012. 287(5): p. 3301-12, He, C., et al., Accelerated Development of Pulmonary Fibrosis via Cu,Zn-superoxide Dismutase-induced Alternative Activation of Macrophages. J Biol Chem, 2013. 288(28): p. 20745-57).
Lung tissue was dried to stable weight and acid hydrolyzed with 6N HCl for 24 h at 120° C. […]

HLF-1 cells = experiment: Mitochondrial H2O2 generation in HLF-1 cells exposed to chrysotile (pHPA assay); format: cell-based; conditions: FIG. 11H, DGBP 10 μM overnight, presence or absence of chrysotile
Procedure: (§4) THP-1, MLE-12, and HLF-1 cell lines were obtained from American Type Culture Collection (Manassas, Va.). Cells were maintained in RPMI-1640, Hites, or F-12K media supplemented with fetal bovine serum and penicillin/streptomycin. All experiments were performed with media supplemented with 0.5% serum.
as §1
(§5) Mitochondria were isolated as previously described (He, C., et al., Mitochondrial Cu,Zn-Superoxide Dismutase Mediates Pulmonary Fibrosis by Augmenting H2O2 Generation. J Biol Chem, 2011. 286(17): p. 15597-607). […]

Rap1A = experiment: Geranylgeranylation, immunoblot for non-geranylgeranylated Rap1A in macrophages; format: cell-based
Procedure: (§6) Whole cells lysates and sub-cellular fractions were separated by SDS-PAGE and transferred to PVDF membranes. Immunoblot analyses on the membranes were performed with the designated antibodies followed by the appropriate secondary antibody cross-linked to HRP.
(§7) To determine if DGBP inhibits Rac1 import into mitochondria, we exposed macrophages to vehicle (water) or DGBP in cells transfected with an empty control or a wild-type Rac1 expression vector (pRK-Flag-Rac1). […] To confirm that DGBP reduced Rac1 import secondary to inhibiting geranylgeranylation, an immunoblot analysis for Rap 1A, which only recognizes non-geranylgeranylated proteins and is indicative of reduced GGPP levels was performed (Weivoda, M. M. and R. J. Hohl, The effects of direct inhibition of geranylgeranyl pyrophosphate synthase on osteoblast differentiation. J Cell Biochem, 2011. 112(6): p. 1506-13, Wasko, B. M., A. Dudakovic, and R. J. Hohl, Bisphosphonates induce autophagy by depleting geranylgeranyl diphosphate. J Pharmacol Exp Ther, 2011. 337(2): p. 540-6). […] To examine whether DGBP altered H2O2 levels, cells were treated similarly as above described with DGBP (10 mM).

Macrophages [3] = experiment: H2O2 generation in macrophages exposed to chrysotile asbestos (pHPA assay); format: cell-based
Procedure: as §1

Rac1 = experiment: Mitochondrial Rac1 import, immunoblot for Flag-Rac1 in isolated mitochondria of transfected macrophages; format: cell-based; conditions: for localization of Rac1 to the mitochondria: Example 2, FIG. 8D
Procedure: as §2, §6, §7

THP-1 cells = experiment: Mitochondrial H2O2 generation in THP-1 cells exposed to chrysotile (pHPA assay); format: cell-based; conditions: FIG. 11F, DGBP 10 μM overnight, chrysotile 10 μg/cm^2 for 1 h
Procedure: as §4, §1, §5

MLE-12 cells = experiment: Mitochondrial H2O2 generation in MLE-12 cells exposed to chrysotile (pHPA assay); format: cell-based; conditions: FIG. 11G, DGBP 10 μM overnight, chrysotile 10 μg/cm^2 for 1 h
Procedure: as §4, §1, §5

[4] = test system: chrysotile-induced pulmonary fibrosis; experiment: Chrysotile asbestos-induced pulmonary fibrosis in mice, DGBP via subcutaneous osmotic pump; format: in vivo
Procedure: To determine the biological relevance of DGBP on oxidative stress in vivo, WT mice were exposed to asbestos (100 μg i.t.). The mice were treated with vehicle or DGBP via administration utilizing a subcutaneous osmotic pump. After 21 days, the mice were euthanized, and lung oxidative stress was determined by GSH assay.
as §3, §2
(§8) Lung tissue was dried to stable weight and acid hydrolyzed with 6N HCl for 24 h at 120° C. Hydroxyproline concentration normalized, to dry weight of the lung, was determined as described previously (Osborn-Heaford, H. L., et al., Mitochondrial Rac1 GTPase Import and Electron Transfer from Cytochrome c Are Required for Pulmonary Fibrosis. The Journal of biological chemistry, 2012. 287(5): p. 3301-12).
(§9) Reduced and oxidized glutathione in the lung were determined as described previously (He, C., et al., Mitochondrial Cu,Zn-Superoxide Dismutase Mediates Pulmonary Fibrosis by Augmenting H2O2 Generation. J Biol Chem, 2011. 286(17): p. 15597-607).
as §6
To determine if geranylgeranylation of Rac1 is associated with other forms of pulmonary fibrosis, the role of DGBP in modulating chrysotile-induced pulmonary fibrosis was tested. WT mice with subcutaneous osmotic pumps delivering vehicle or DGBP were exposed to chrysotile as previously described (He, C., et al., Mitochondrial Cu,Zn-Superoxide Dismutase Mediates Pulmonary Fibrosis by Augmenting H2O2 Generation. J Biol Chem, 2011. 286(17): p. 15597-607, Osborn-Heaford, H. L., et al., Mitochondrial Rac1 GTPase Import and Electron Transfer from Cytochrome c Are Required for Pulmonary Fibrosis. The Journal of biological chemistry, 2012. 287(5): p. 3301-12, Murthy, S., et al., Rac1-mediated Mitochondrial H2O2 Generation Regulates MMP-9 Gene Expression in Macrophages via Inhibition of SP-1 and AP-1. J Biol Chem, 2010. 285(32): p. 25062-73). It was first determined if DGBP altered mitochondrial Rac1 localization in BAL cells. Alveolar macrophages were obtained by BAL 21 days after chrysotile exposure. […] Lung oxidative stress was also evaluated. […]

[5] = test system: bleomycin-induced pulmonary fibrosis; experiment: Bleomycin-induced pulmonary fibrosis in mice, DGBP via subcutaneous osmotic pump; format: in vivo
Procedure: as §3, §2, §8, §9, §6
Active TGF-β in BAL fluid was measured by ELISA (R&D, Minneapolis, Minn.), according to manufacturer's instructions.
Because bleomycin increased mitochondrial oxidative stress in alveolar macrophages in vivo, it was next evaluated if bleomycin modulates Rac1 mitochondrial import. Osmotic pumps containing either vehicle (water) or DGBP were implanted subcutaneously in WT mice. DGBP was delivered at a dose of 0.2 mg/kg/day. Mice were exposed to saline or bleomycin the following day, and BAL was performed 21 days later to obtain alveolar macrophages. Mitochondria were isolated to investigate Rac1 localization.

[6] = Apparent toxicity at the concentrations and doses used in the studies; conditions: in vitro or in vivo

## digeranyl bisphosphonate [DGBP]
Macrophages [1]
  mitochondrial H2O2 generation: abrogated asbestos-induced mitochondrial H2O2 generation below control levels
[2]; FIG. 10C, DGBP 0.2 mg/kg/day from seven days after bleomycin, 21 days after bleomycin
  lung collagen deposition (Masson's trichrome): small patches of collagen deposition, but there was significantly less collagen compared to mice that received vehicle
[2]; FIG. 10D, DGBP from seven days after bleomycin, vs vehicle
  lung hydroxyproline content: significantly less hydroxyproline
HLF-1 cells
  mitochondrial H2O2 generation: increased H2O2 in the presence or absence of chrysotile
Rap1A; Example 1, FIG. 3B, whole cell lysates
  geranylgeranylation (Rap1A immunoblot): inhibition of geranylgeranylation
Rap1A; Example 2, FIG. 8E, 10 mM DGBP, isolated cytoplasm
  Rap1A geranylgeranylation: impaired Rap1A geranylgeranylation
Macrophages [3]; Example 1, FIG. 1, DGBP 10 mM, chrysotile asbestos 10 μg/cm^2
  H2O2 generation: significant reduction in H2O2 to control levels
Macrophages [3]; Example 2, FIG. 8F, DGBP 10 mM overnight, presence and absence of chrysotile 10 μg/cm^2, 90 min
  H2O2 levels: decreased H2O2 to control levels
Rac1; Example 1, FIG. 3A, chrysotile asbestos 10 μg/cm^2 for 1 h
  mitochondrial Rac1 import: inhibited mitochondrial Rac1 import in a dose-dependent manner
Rac1; 1 mM DGBP overnight, chrysotile 10 μg/cm^2 for 90 min
  localization of Rac1 to the mitochondria: Chrysotile induced localization of Rac1 to the mitochondria
Rac1; 10 mM DGBP overnight, presence or absence of chrysotile
  localization of Rac1 to the mitochondria: Rac1 was absent from the mitochondria
THP-1 cells
  mitochondrial H2O2 generation: reduced chrysotile-induced H2O2 significantly at all time points
MLE-12 cells
  mitochondrial H2O2 generation: increased H2O2 generation in cells exposed to chrysotile
[4]; Example 1, FIG. 4, asbestos 100 μg i.t., after 21 days, vs vehicle
  lung oxidative stress (GSH assay): significant reduction in lung oxidative stress
[4]; Example 1, FIG. 5, chrysotile asbestos 100 μg i.t., 21 days, vs vehicle
  pulmonary fibrosis (hydroxyproline assay): significantly less pulmonary fibrosis
[4]; FIG. 11B, chrysotile, 21 days
  oxidized GSH (% GSSG) in the lung, vehicle relative to DGBP: 2.5 fold
[4]; FIG. 11D, chrysotile, after 21 days
  lung histology (Masson's trichrome): essentially normal
[4]; FIG. 11E, chrysotile, after 21 days, water vs DGBP
  lung hydroxyproline: confirmed by hydroxyproline assay
[5]; Example 1, FIG. 6, bleomycin 2.0 U/kg i.t., 21 days, vs vehicle
  pulmonary fibrosis (hydroxyproline assay): significantly less pulmonary fibrosis
[5]; FIG. 9B, DGBP 0.2 mg/kg/day, bleomycin 2.0 U/kg, BAL 21 days later
  immunoreactive Rac1 in alveolar macrophage mitochondria: significant reduction in immunoreactive Rac1 in mitochondria
[5]; FIG. 9B, DGBP 0.2 mg/kg/day, immunoblot
  non-geranylgeranylated Rap1A in BAL cells: non-geranylgeranylated Rap 1A was increased
[5]; FIG. 9C, bleomycin, after 21 days
  oxidized GSH (% GSSG) in lung, vehicle vs DGBP: significantly higher oxidized GSH (% GSSG) than the lungs of mice that received DGBP
[5]; FIG. 9D, bleomycin, DGBP 0.2 mg/kg/day, ELISA
  active TGF-β in BAL fluid, vehicle relative to DGBP: greater than 5 fold
[5]; FIG. 9F, bleomycin
  lung histology (Masson's trichrome): normal lung architecture
[5]; FIG. 9G, following bleomycin exposure, vs vehicle
  lung hydroxyproline: significantly less hydroxyproline
[6]
  apparent toxicity: not associated with apparent toxicity in vitro or in vivo
